Biological target: T1, Human Leukocyte Elastase (HLE) (Homo sapiens, UniProt P08246)
T1 construct: The PMN lysates were prepared by isolating human neutrophils from whole blood; from tissue; host or cells: human neutrophils (PMN) isolated from whole blood, lysed by sonication in PBS
T1 sequence (P08246 30-267): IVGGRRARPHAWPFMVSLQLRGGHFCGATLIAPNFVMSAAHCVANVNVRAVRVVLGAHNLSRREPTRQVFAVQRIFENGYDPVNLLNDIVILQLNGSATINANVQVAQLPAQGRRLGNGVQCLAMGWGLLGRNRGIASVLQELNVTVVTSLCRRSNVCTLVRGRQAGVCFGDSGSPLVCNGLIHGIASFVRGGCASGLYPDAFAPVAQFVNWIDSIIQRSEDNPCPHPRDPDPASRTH
Assay: HLE time-dependent reactivation (off-rate) assay
Format: biochemical
Conditions: head-to-head with Examples 1 and 3
Method: An important and desirable aspect of these mechanism-based HLE inhibitors is also the extent to which the enzyme remains inactivated or, in other words, the rate at which the modified inhibitor comes off the enzyme after the inactivation event has occurred and which then gives back the active HLE enzyme (see Note 2c and 4). This property was assessed in a time-dependent reactivation assay and the results were calculated as a first-order rate constant expressed as their half-lives in hours (t1/2). […] Under head-to-head conditions (n=2) with Examples 1 and 3, the off-rate for the comparator Compound #290 of U.S. Pat. No. 5,591,737 was determined to be 7.1 hrs, or about 2.5-2.6 times as fast.
Elastase was incubated with 100-fold molar excess of inhibitor in TES buffer (0.045M TES, 0.45M NaCl, pH 7.5, 0.1% BSA) at room temperature for 60 minutes. After the incubation was complete, the samples were loaded onto prepared columns (Micro BioSpin Chromatography Columns-Bio-Gel P-6 Columns Bio-Rad Cat# 732-6221; prepared as directed by the manufacturer). […] At specific time points, the filtrate was monitored for elastase activity by adding the filtrate to 1 mM substrate (MeoSucc-AAPV-pNA; Elastin Products Cat# FH237) in TES buffer (0.045M TES, 0.45M NaCl, pH 7.5) and measuring the absorbance at 410 nm. The absorbance was monitored every 10 seconds for 5 minutes. […]

SMILES: CCC[C@@H](NC(=O)N1C(=O)C(CC)(CC)[C@@H]1Oc1ccc(C(=O)N(C)CCN(C)C)cc1)c1ccc(OC)cc1 [Compound #290, reference compound]
- off-rate relative to Examples 1 and 3 (times as fast): 2.5-2.6 times
